# Results published in patent US12466813B2, “PRC1 inhibitors and methods of treatment therewith” (The Regents of the University of Michigan, priority 2018, dated 2025).
# pKd: −log10 of the molar value.
# Target: T1, RING1B-BMI1 (Homo sapiens, UniProt Q99496)
# T1 sequence (Q99496 1-336): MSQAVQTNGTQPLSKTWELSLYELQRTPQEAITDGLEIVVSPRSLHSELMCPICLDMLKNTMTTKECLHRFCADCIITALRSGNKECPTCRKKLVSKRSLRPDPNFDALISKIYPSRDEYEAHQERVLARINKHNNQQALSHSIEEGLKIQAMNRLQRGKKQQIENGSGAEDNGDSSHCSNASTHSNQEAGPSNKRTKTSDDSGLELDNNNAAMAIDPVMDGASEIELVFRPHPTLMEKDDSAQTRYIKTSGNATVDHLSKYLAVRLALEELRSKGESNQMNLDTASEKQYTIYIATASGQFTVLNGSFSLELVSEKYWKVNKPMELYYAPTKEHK
# T1 sequence (P35226 1-326 partner): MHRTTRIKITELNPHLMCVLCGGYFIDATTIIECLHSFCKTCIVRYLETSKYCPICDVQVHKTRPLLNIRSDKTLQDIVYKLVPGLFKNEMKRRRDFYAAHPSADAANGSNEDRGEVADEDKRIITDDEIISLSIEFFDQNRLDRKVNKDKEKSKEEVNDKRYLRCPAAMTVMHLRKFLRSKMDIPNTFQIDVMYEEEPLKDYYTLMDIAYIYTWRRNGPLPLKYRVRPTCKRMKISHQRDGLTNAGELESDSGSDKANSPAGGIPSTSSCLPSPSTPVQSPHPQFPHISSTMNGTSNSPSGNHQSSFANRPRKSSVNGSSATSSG
# Assay: KD classes of Table A (direct binding to Ring1B-Bmi1)
# Details: class given in Table A
# Protocol: Experiments were conducted during development of embodiments herein to develop small molecule inhibitors of PRC1 by targeting the Ring1B-BMI1 E3 ligase. These compounds bind directly to Ring1B-Bmi1 with low-micromolar affinity and inhibit PRC1 in vitro and in cells. […] Experiments were conducted during development of embodiments herein to test COMPOUND 1 in leukemia stem cell models represented by TEX cells (Ref. 22; herein incorporated by reference in its entirety) and M9-ENL1 cells (Ref. 23; herein incorporated by reference in its entirety). […] In some embodiments, COMPOUND 1 and COMPOUND 1 analogs are find use as agents in targeting leukemia and other cancer stem cells.
# The compounds listed in Table A have been synthesized and/or tested for activity in inhibiting activity of PRC1 complex, and are within the scope herein.
row,SMILES,pKd
1,CC(C)c1c(-c2ccnc3[nH]ccc23)[nH]c(C(=O)O)c1-c1c(Cl)ccc2[nH]ccc12 [compound 75],> 4.70
2,COc1cc(-c2[nH]c(C(=O)O)c(-c3c(Cl)ccc4[nH]ccc34)c2C(C)C)c2cc[nH]c2c1 [compound 11],> 4.70
3,CC(C)c1c(-c2cc(F)cc3[nH]ccc23)[nH]c(C(=O)O)c1-c1cccc2[nH]c(C(=O)Nc3nccs3)cc12 [compound 261],> 4.70
4,C#CCCCCC(=O)NCCn1ccc2c(-c3c(C(=O)O)[nH]c(-c4cc(F)cc5[nH]ccc45)c3C(C)C)cccc21 [compound 66],> 4.70
5,CC(C)c1c(-c2cc(F)cc3[nH]ccc23)[nH]c(C(=O)O)c1-c1cccc2[nH]c(-c3ccccc3)cc12 [compound 259],> 4.70
6,CC(C)c1c(-c2cc(F)cc3[nH]ccc23)[nH]c(C(=O)O)c1-c1cccc2[nH]c(CCS(N)(=O)=O)cc12 [compound 231],> 4.70
7,COc1ccc(-c2c(C(=O)O)[nH]c(-c3cc(F)cc4[nH]ccc34)c2C(C)C)c(C)c1 [compound 59],> 4.70
8,CC(C)c1c(-c2cc(F)cc3[nH]ccc23)[nH]c(C(=O)O)c1-c1cc(Cl)cc2[nH]ccc12 [compound 41],> 4.70
9,CCCC(=O)NCCn1ccc2c(-c3c(C(=O)O)[nH]c(-c4cc(F)cc5[nH]ccc45)c3C(C)C)cc(OC)cc21 [compound 180],> 4.70
10,CCOC(=O)c1[nH]c(-c2c(OC)cccc2OC)c(CC)c1-c1ccc(OC)cc1Cl [compound 164],< 4.00
11,CC(C)c1c(-c2cc(F)cc3[nH]ccc23)[nH]c(C(=O)O)c1-c1cc(OC2CCCC2)cc2[nH]ccc12 [compound 234],> 4.70
12,CC(C)c1c(-c2cccc3[nH]c(CO)cc23)[nH]c(C(=O)O)c1-c1c(Cl)ccc2[nH]ccc12 [compound 52],> 4.70
13,CCc1ccc2[nH]ccc2c1-c1c(C(=O)O)[nH]c(-c2cc(F)cc3[nH]ccc23)c1C(C)C [compound 242],> 4.70
14,CC(C)c1c(-c2cc(F)cc3[nH]ccc23)[nH]c(C(=O)O)c1-c1cc(F)cc2[nH]ccc12 [compound 36],> 4.70
15,CCc1c(-c2ccc(C)c3[nH]ccc23)[nH]c(C(=O)O)c1-c1cccc2[nH]ccc12 [compound 22],> 4.70
16,CC(C)c1c(-c2cc(F)cc3[nH]ccc23)[nH]c(C(=O)O)c1-c1ccnc2[nH]c(-c3nccs3)cc12 [compound 233],> 4.70
17,CC(C)c1c(-c2cc(F)cc3[nH]ccc23)[nH]c(C(=O)O)c1-c1cccc2c1ccn2CCNS(C)(=O)=O [compound 265],> 4.70
18,COCc1ccc2[nH]ccc2c1-c1c(C(=O)O)[nH]c(-c2cc(F)cc3[nH]ccc23)c1C(C)C [compound 237],> 4.70
19,CCOc1cc(-c2c(C(=O)O)[nH]c(-c3cc(F)cc4[nH]ccc34)c2C(C)C)c2cc[nH]c2c1 [compound 42],> 4.70
20,Cc1c[nH]c2cccc(-c3[nH]c(C(=O)O)c(-c4c(Cl)ccc5[nH]ccc45)c3C(C)C)c12 [compound 26],> 4.70
21,CC(C)c1c(-c2cc(F)cc3[nH]ccc23)[nH]c(C(=O)O)c1-c1c(F)ccc2[nH]ccc12 [compound 243],> 4.70

row,SMILES,pKd
1,O=C(O)c1ccc(-c2cccc(O)c2)[nH]1 [compound 156],< 4.00
2,CC(C)c1c(-c2cc(O)cc3[nH]ccc23)[nH]c(C(=O)O)c1-c1c(Cl)ccc2[nH]ccc12 [compound 12],> 4.70
3,CC(C)c1c(-c2cc(F)cc3[nH]ccc23)[nH]c(C(=O)O)c1-c1ccc2[nH]ccc2c1 [compound 38],> 4.70
4,CCc1c(-c2cccc3[nH]ccc23)[nH]c(C(=O)O)c1-c1ccc(-c2ccccc2)cc1 [compound 106],< 4.00
5,Cc1cc(C(=O)O)[nH]c1-c1cccc2[nH]ccc12 [compound 121],< 4.00
6,CC(C)c1c(-c2cc(F)cc3[nH]ccc23)[nH]c(C(=O)O)c1-c1cccc2[nH]ccc12 [compound 35],> 4.70
7,CC(C)c1c(-c2cc(F)cc3[nH]ccc23)[nH]c(C(=O)O)c1-c1cccc2c1ccn2CCS(C)(=O)=O [compound 267],> 4.70
8,CC(C)c1c(-c2cc(F)cc3[nH]ccc23)[nH]c(C(=O)O)c1-c1cc(OC2COC2)cc2[nH]ccc12 [compound 236],> 4.70
9,COc1cc(-c2c(C(=O)O)[nH]c(-c3cc(F)cc4[nH]ccc34)c2C(C)C)c2ccn(CC(=O)O)c2c1 [compound 46],> 4.70
10,CC(C)c1c(-c2cc(F)cc3[nH]cc(CCNC(=O)CCCCCNC(=O)c4ccc5c(c4)C(=O)OC54c5ccc(O)cc5Oc5cc(O)ccc54)c23)[nH]c(C(=O)O)c1-c1c(Cl)ccc2[nH]ccc12 [compound 70],> 4.70
11,COc1cc(-c2c(C(=O)O)[nH]c(-c3cc(F)cc4[nH]ccc34)c2C(C)C)c2cc(C(=O)O)[nH]c2c1 [compound 50],> 4.70
12,COc1ccc(-c2c(C(=O)O)[nH]c(-c3cc(F)cc4[nH]ccc34)c2C(C)C)c(Cl)c1 [compound 56],> 4.70
13,O=C(O)c1ccc(-c2cccc(OCC3CC3)c2)[nH]1 [compound 131],< 4.00
14,CC(C)c1c(-c2cc(F)cc3[nH]ccc23)[nH]c(C(=O)O)c1-c1cccc2[nH]cc(CCO)c12 [compound 187],> 4.70
15,CCC(C)c1c(-c2cc(F)cc3[nH]ccc23)[nH]c(C(=O)O)c1-c1cc(OC)cc2[nH]ccc12 (centres unmarked) [compound 171],> 4.70
16,O=C(O)c1ccc(-c2ccc(C(F)(F)F)cc2)[nH]1 [compound 150],< 4.00
17,COc1cccc(-c2ccc(C(=O)O)[nH]2)c1 [compound 141],< 4.00
18,CC(C)c1c(-c2cc(F)cc3[nH]ccc23)[nH]c(C(=O)O)c1-c1cc(C(=O)NCC2CC2)cc2[nH]ccc12 [compound 199],> 4.70
19,O=C(O)c1ccc(-c2cccc(Oc3ccccc3)c2)[nH]1 [compound 139],< 4.00
20,Cc1ccc2[nH]ccc2c1-c1[nH]c(C(=O)O)c(-c2c(Cl)ccc3[nH]ccc23)c1C(C)C [compound 7],> 4.70
21,O=C(O)c1ccc(-c2ccc(-c3ccccc3)cc2)s1 [compound 159],< 4.00

row,SMILES,pKd
1,O=C(O)c1ccc(-c2cccc3c2ccn3CCO)[nH]1 [compound 146],< 4.00
2,CCc1c(-c2cccc3[nH]ccc23)[nH]c(C(=O)O)c1-c1ccc(C)cc1 [compound 100],4.00 to 4.30
3,CC(C)c1c(-c2cccc3[nH]ccc23)[nH]c(C(=O)O)c1-c1cc([N+](=O)[O-])c(O)cc1Cl [compound 4],> 4.70
4,O=C(O)c1[nH]c(-c2cccc3[nH]ccc23)c(C2CC2)c1-c1cccc2[nH]ccc12 [compound 29],> 4.70
5,CC(CF)c1c(-c2cccc3[nH]ccc23)[nH]c(C(=O)O)c1-c1cccc2[nH]ccc12 (centres unmarked) [compound 32],> 4.70
6,CC(C)c1c(-c2cc(F)cc3[nH]ccc23)[nH]c(C(=O)O)c1-c1cccc2c1ccn2CS(N)(=O)=O [compound 263],> 4.70
7,CC(C)c1c(-c2cccc3[nH]cc(CCO)c23)[nH]c(C(=O)O)c1-c1c(Cl)ccc2[nH]ccc12 [compound 27],> 4.70
8,CCc1c(-c2cccc3[nH]ccc23)[nH]c(C(=O)O)c1-c1ccccc1C [compound 83],4.30 to 4.70
9,COc1ccc(OC)c(-c2ccc(C(=O)O)[nH]2)c1 [compound 155],< 4.00
10,CC(C)c1c(-c2cc(F)cc3[nH]ccc23)[nH]c(C(=O)O)c1-c1ccnc2[nH]ccc12 [compound 74],> 4.70
11,COCCC(=O)NCCn1ccc2c(-c3c(C(=O)O)[nH]c(-c4cc(F)cc5[nH]ccc45)c3C(C)C)cc(OC)cc21 [compound 176],> 4.70
12,CC(C)c1c(-c2cc(F)cc3[nH]ccc23)[nH]c(C(=O)O)c1-c1cccc2[nH]c(C(=O)Nc3ccccc3)cc12 [compound 260],> 4.70
13,CCc1c(-c2cccc3[nH]ccc23)[nH]c(C(=O)O)c1-c1ccccc1Cl [compound 65],> 4.70
14,Cc1cc(-c2[nH]c(C(=O)O)c(-c3c(Cl)ccc4[nH]ccc34)c2C(C)C)c2cc[nH]c2c1 [compound 8],> 4.70
15,CC(C)c1c(-c2cc(F)cc3[nH]ccc23)[nH]c(C(=O)O)c1-c1cccc2[nH]c(C(=O)NCc3nccs3)cc12 [compound 262],> 4.70
16,CC(C)c1c(-c2cc(F)cc3[nH]ccc23)[nH]c(C(=O)O)c1-c1cccc2[nH]c(S(C)(=O)=O)cc12 [compound 228],> 4.70
17,COCCC(=O)NCCc1c[nH]c2cc(F)cc(-c3[nH]c(C(=O)O)c(-c4c(Cl)ccc5[nH]ccc45)c3C(C)C)c12 [compound 72],> 4.70
18,CC(C)c1c(-c2cc(F)cc3[nH]ccc23)[nH]c(C(=O)O)c1-c1c(Cl)ccc2[nH]ccc12 [compound 14],> 4.70
19,CC(C)c1c(-c2cc(F)cc3[nH]ccc23)[nH]c(C(=O)O)c1-c1ccnc2[nH]c(-c3ccccc3)cc12 [compound 251],> 4.70
20,CC(C)c1c(-c2cc(F)cc3[nH]ccc23)[nH]c(S(C)(=O)=O)c1-c1cccc2[nH]ccc12 [compound 218],> 4.70
